Tested on: 282377-053-R-J1-PDC complex spheroid viability
Assay: Anticancer human tumor 282377-053-R-J1-PDC patient-derived colon adenocarcinoma cell line growth inhibition [POLQ]
Details: for IC50: curve of first compound; for viability, T/C: stronger effect = lower value; active = viability on the fitted dose curve at most 10% of control; inactive = the rest
Summary of the method: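 Patient-derived tumour cells were co-cultured with HUVEC and mesenchymal stem cells as multicellular spheroids at 37 °C. They were treated with POLQ inhibitors (novobiocin, ART-558, RP6685) alone or combined with other agents. Top concentrations were at or near clinical Cmax (otherwise 10 microM; SN-38 at 1 microM), decreasing in half-log steps.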
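Note: spheroids exposed to compounds for seven days.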
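Throughout, for viability, T/C: 100% = DMSO vehicle control viability.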

O=C(c1cc(Cc2n[nH]c(=O)c3ccccc23)ccc1F)N1CCN(C(=O)C2CC2)CC1 + Cc1cccc(N(C)C(=O)C2C(O)CCN2c2nc(C)cc(C(F)(F)F)c2C#N)c1
> 10 µM: IC50 (second compound 0.0316 µM) | IC50 (second compound 0.1 µM) | IC50 (second compound 0.316 µM) | IC50 (second compound 1 µM) | IC50 (second compound 3.16 µM) | IC50 (second compound 10 µM)
inactive: viability, T/C (second compound 0.0316 µM, first compound 0.0316 µM) 104% | viability, T/C (second compound 0.0316 µM, first compound 0.1 µM) 107% | viability, T/C (second compound 0.0316 µM, first compound 0.316 µM) 109% | viability, T/C (second compound 0.0316 µM, first compound 1 µM) 107% | viability, T/C (second compound 0.0316 µM, first compound 3.16 µM) 106% | viability, T/C (second compound 0.0316 µM, first compound 10 µM) 80.7% | viability, T/C (second compound 0.1 µM, first compound 0.0316 µM) 110% | viability, T/C (second compound 0.1 µM, first compound 0.1 µM) 108% | viability, T/C (second compound 0.1 µM, first compound 0.316 µM) 112% | viability, T/C (second compound 0.1 µM, first compound 1 µM) 90.9% | viability, T/C (second compound 0.1 µM, first compound 3.16 µM) 116% | viability, T/C (second compound 0.1 µM, first compound 10 µM) 80.4% | viability, T/C (second compound 0.316 µM, first compound 0.0316 µM) 83.3% | viability, T/C (second compound 0.316 µM, first compound 0.1 µM) 94% | viability, T/C (second compound 0.316 µM, first compound 0.316 µM) 101% | viability, T/C (second compound 0.316 µM, first compound 1 µM) 87.3% | viability, T/C (second compound 0.316 µM, first compound 3.16 µM) 94% | viability, T/C (second compound 0.316 µM, first compound 10 µM) 85.3% | viability, T/C (second compound 1 µM, first compound 0.0316 µM) 100% | viability, T/C (second compound 1 µM, first compound 0.1 µM) 92.2% | viability, T/C (second compound 1 µM, first compound 0.316 µM) 108% | viability, T/C (second compound 1 µM, first compound 1 µM) 111% | viability, T/C (second compound 1 µM, first compound 3.16 µM) 107% | viability, T/C (second compound 1 µM, first compound 10 µM) 95.3% | viability, T/C (second compound 3.16 µM, first compound 0.0316 µM) 92.2% | viability, T/C (second compound 3.16 µM, first compound 0.1 µM) 117% | viability, T/C (second compound 3.16 µM, first compound 0.316 µM) 104% | viability, T/C (second compound 3.16 µM, first compound 1 µM) 88.6% | viability, T/C (second compound 3.16 µM, first compound 3.16 µM) 101% | viability, T/C (second compound 3.16 µM, first compound 10 µM) 101% | viability, T/C (second compound 10 µM, first compound 0.0316 µM) 84.6% | viability, T/C (second compound 10 µM, first compound 0.1 µM) 110% | viability, T/C (second compound 10 µM, first compound 0.316 µM) 90.4% | viability, T/C (second compound 10 µM, first compound 1 µM) 110% | viability, T/C (second compound 10 µM, first compound 3.16 µM) 87% | viability, T/C (second compound 10 µM, first compound 10 µM) 107%

Source: PubChem BioAssay AID1963852 (Molecular Pharmacology Branch, DTP, NCI, 2024)
